Results on three compounds are retold here after ChEMBL document CHEMBL1201862, “PubChem BioAssay data set” (2004).

What all share (assay): DTP human tumour cell line panel, 48 h
In assay [1] the test system is A498.
The subject of assay [2] is NCI-H522.
In assay [3] the test system is ACHN.
In assay [4] the test system is BT-549.
Assay [5] deals with HCT-15.
The subject of assay [6] is MDA-N.
Assay [7] concerns CAKI-1.
The test system of assay [8] is EKVX.
For assay [9], the system named is SK-MEL-28.
Assay [10] deals with HL-60.
The test system of assay [11] is SK-OV-3.
Assay [12] concerns HT-29.
Assay [13] deals with SF-295.
The test system of assay [14] is HCC 2998.
Assay [15] has as its system KM-20L2.
The subject of assay [16] is SW-620.
Assay [17] has as its system UACC-257.
In assay [18] the test system is NCI/ADR-RES.
The subject of assay [19] is K562.
Assay [20] concerns NCI-H226.

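Cultured in 96-well plates, cells were exposed to test compound for 48 hours across five concentrations. Here, GI50 denotes the concentration required for 50% inhibition of growth.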 The source made the active and inactive calls. Cut-off read from the data, not from the text of the source: active = GI50 up to about 1.1 µM and inactive = higher. Bounds are passed on as bounds.

Usually GI50 stands for the concentration giving 50% growth inhibition.

Regarding `NC1=NCN(C2OC(CO)C(O)C2O)C(=O)N1` (stereo not given), the GI50 in assay [1] was 6.85 µM (inactive); in assay [2], 5.26 µM (inactive); in assay [3], 0.802 µM (active); in [4], 9.62 µM (inactive); in assay [5], 4.5 µM; in assay [6] it was 7.87 µM (inactive). In addition, the GI50 was 69 µM (inactive) in assay [7]; 509 µM (inactive) in [8]; 57.3 µM (inactive) in assay [9]; 0.838 µM (active) in assay [10]; 126 µM (inactive) in assay [11]; 42.3 µM (inactive) in assay [12]. For the same compound, the GI50 is 43.4 µM (inactive) in assay [13]; 40.4 µM (inactive) in assay [14]; 14.5 µM (inactive) in assay [15]; 16.7 µM (inactive) in [16]; 49 µM (inactive) in [17]; 705 µM (inactive) in assay [18]. The GI50 in assay [19] is 2.28 µM (inactive); in [20], 5.57 µM (inactive).
Regarding `Nc1cc2[nH]cnc2c(=O)[nH]1` [DEZAGUANINE], the GI50 in assay [1] is 63.5 µM (inactive); in assay [2], 14.8 µM (inactive); in [3] it was 8.87 µM (inactive); in [4] it was > 123 µM (inactive); in [5], 19.3 µM; in [6], 15.5 µM (inactive). In addition, the GI50 in assay [7] is 11 µM (inactive); in [8] it was 56.2 µM (inactive); in assay [9] it was 40.6 µM (inactive); in [10] it was 6.21 µM (inactive); in [11], 5.12 µM (inactive); in assay [12], 21.5 µM (inactive). Moreover, the GI50 in [13] was > 219 µM (inactive); in assay [14], 82.8 µM (inactive); in assay [15], 33.7 µM (inactive); in [16] it was 17.7 µM (inactive); in assay [17], 109 µM (inactive); in [18], 50.9 µM (inactive). For the same compound, the GI50 was 12.3 µM (inactive) in assay [19] and 77.1 µM (inactive) in assay [20].
Take `CN1C(=O)CC2(C)c3cc(O)ccc3N(C)C12` (stereo not given): the GI50 in assay [1] is 43 µM (inactive); in assay [2] it was 43.3 µM (inactive); in assay [3], 63.2 µM (inactive); in assay [4], 16.9 µM (inactive); in assay [5] it was 36 µM; in assay [6], 17.6 µM (inactive). The GI50 in [7] was 23.8 µM (inactive); in assay [8], 37.8 µM (inactive); in assay [9], 50.7 µM (inactive); in assay [10], 21.2 µM (inactive); in assay [11], > 95.3 µM (inactive); in assay [12], 30.5 µM (inactive). Besides, the GI50 in assay [13] was 29.8 µM (inactive); in assay [14], > 100 µM (inactive); in [15], > 100 µM (inactive); in assay [16], 20 µM (inactive); in [17] it was > 68.2 µM (inactive); in assay [18] it was 39.4 µM (inactive). The GI50 in assay [19] was 18.5 µM (inactive); in assay [20] it was 40.6 µM (inactive).
